{"source": "paper PMC6005341", "about": "“Identification of “sarsasapogenin-aglyconed” timosaponins as novel Aβ-lowering modulators of amyloid precursor protein processing” (Chemical Science, 2016)", "key": {"[1]": {"test_system": "brain Aβ / amyloid in APPswe transgene", "conditions": "cited from earlier work"}, "[2]": {"test_system": "Mouse primary cortical neurons", "design": "method as in earlier work", "conditions": "ref J. Biol. Chem. (2005) 280: 5829, J. Biol. Chem. (2010) 285:28472, read-out: In vitro IC50 Aβ inhibition; cited from earlier work"}, "[3]": {"test_system": "HEK293 expressing APPswe", "design": "method as in J Neurosci Res (2012) 92: 108", "conditions": "ref J Neurosci Res (2012) 92: 108, read-out: In vitro IC50 Aβ inhibition; cited from earlier work"}, "[4]": {"test_system": "HEK293 expressing APP", "design": "method as in J. Biol. Chem. (2010) 285:9110", "conditions": "ref J. Biol. Chem. (2010) 285:9110, read-out: In vitro IC50 Aβ inhibition; cited from earlier work"}, "[5]": {"test_system": "Brain Aβ42 in APP/PS1 transgene", "design": "method as in J. Biol. Chem. (2010) 285:9110", "conditions": "diet with 0.35% for 15 weeks, ref J. Biol. Chem. (2010) 285:9110; cited from earlier work"}, "[6]": {"test_system": "β-secretase", "design": "method as in PMID 23082924", "conditions": "rat retina; cited from earlier work"}, "[7]": {"test_system": "SH-SY5Y Cells expressing APP", "design": "method as in J Neurosci. (2005) 25: 3032; J. Biol. Chem (2011) 286:14028", "conditions": "ref J Neurosci. (2005) 25: 3032, J. Biol. Chem (2011) 286:14028, read-out: In vitro IC50 Aβ inhibition; cited from earlier work"}, "[8]": {"test_system": "Aβ42 levels in the brain", "assay": "In vivo brain Aβ42 level by ELISA after oral dosing", "conditions": "100 mg kg^–1 oral gavage, three times in 2 days, 3–5 month old C57BL/6 mice", "method": "was performed at least three times. The lowest binding scores were computed and the conformations of the corresponding binding pose presented.\nQuantum mechanics/Molecular mechanics. The binding between transmembrane and substrate was further optimized using the QM/MM approach and NWChem software. The quantum part (QM) included TAIII (total 116 atoms), while the rest of the system was modelled as the molecular mechanics (MM) level. The QM region was treated at the DFT level using the B3LYP method. The 6-31G* Pople basis set was employed for all the atoms.\nThe transmembrane was described with the AMBER parm99 force field. The binding structure was solvated in a cubic box with 6872 classical SPC/E water molecules. Three negative counter ions (Cl-) were added to neutralize the charges in the system. The structure was optimized by performing the BFGS algorithm for the QM part and the steepest descent algorithm for the MM part. The optimization of these two regions (QM and MM) was alternated until self-consistency was reached.\nAnimal experiments: Male C57BL/6N mice were housed in environmentally controlled room (temperature: 25 ± 2 °C, humidity: 50 ± 5%, 12-h light-dark cycle) in Laboratory Animal Unit, The University of Hong Kong and were freely access to food and water. TAIII, TAI SSG and compound 34 were dissolved in 5% Tween 80 and given to the mice by oral gavage at three repeated doses of 100 mg/kg in 48 hours. Mice were administrated with 5% Tween 80 (control group), TAIII, TAI SSG and 34. The experimental procedures were performed with the approval of Committee of Use of Live Animal for Teaching and Research of The University of Hong Kong. Blood (about 600-800 µL) was collected by cardiac puncture and added with 1/10 volume of Na2EDTA (20 mg/mL) to prevent coagulation. After centrifugation at 3000 g for 15 min at 4 °C, plasma was transferred to a centrifuge tube. […] Both plasma and brain samples were stored at -80 °C until they were analyzed. The Aβ42 levels were determined by Wako High Sensitive Aβx-42 ELISA kit. […]"}, "[9]": {"assay": "Plasma and brain concentrations by LC-MS/MS", "assay_type": "in vivo, mice", "method": "Animal experiments: Male C57BL/6N mice were housed in environmentally controlled room (temperature: 25 ± 2 °C, humidity: 50 ± 5%, 12-h light-dark cycle) in Laboratory Animal Unit, The University of Hong Kong and were freely access to food and water. TAIII, TAI SSG and compound 34 were dissolved in 5% Tween 80 and given to the mice by oral gavage at three repeated doses of 100 mg/kg in 48 hours. Mice were administrated with 5% Tween 80 (control group), TAIII, TAI SSG and 34. The experimental procedures were performed with the approval of Committee of Use of Live Animal for Teaching and Research of The University of Hong Kong. Blood (about 600-800 µL) was collected by cardiac puncture and added with 1/10 volume of Na2EDTA (20 mg/mL) to prevent coagulation. After centrifugation at 3000 g for 15 min at 4 °C, plasma was transferred to a centrifuge tube. The brain was dissected into two hemispheres on ice, weighed and frozen in liquid nitrogen immediately. The left brain was homogenized with 1 mL of buffer containing 5 M guanidine HCl, 50 mM Tris HCl, pH 8.0, with protease inhibitor cocktail and AEBSF using a Polytron and the homogenates were allowed to stand at room temperature for 3h. Both plasma and brain samples were stored at -80 °C until they were analyzed. […]\nB. Determination of timosaponin levels in mice plasma and brain by ultra-high pressure liquid chromatography tandem mass spectrometry\nThe UPLC-ESI-QTOF consists of a Waters Q-TOF PremierTM mass spectrometer (Micromass MS Technologies, Manchester, UK) operated in positive ion mode and a Waters ACQUITY TM UPLC system. The mass spectrometer conditions were optimized as follows: source […]\ntemperature, 120 °C; desolvation temperature, 500 °C; nebulization gas flow rate, 1000 L/h; cone gas flow rate, 20 L/h; capillary voltage, 2.5 kV; sampling cone voltage, 28V. The data were collected into two separate data channels with the instrument spending 0.5 s on data acquisition for each channel and a 0.1 s inter-channel delay. The mass spectrometer was calibrated by using the solution of sodium formate (0.5 mM) and the TOF scan range was from 100 to 1000 Da. In order to improve mass measurement accuracy a lock mass compound (50 pg µL−1 solution of leucine encephalin; m/z 556.2771) was continuously infused at a 0.5 mL min-1 using the built-in syringe pump of the instrument.\nSample was loaded into a Waters ACQUITY TM BEH C18 column (100 × 2.1 mm i.d., 1.7 µM) connected to a Waters ACQUITY TM BEH C18 guard column (5 × 2.1 mm i.d., 1.7 µM). The gradient elution system consisted of 0.1% formic acid in water (A) and 0.1% formic acid in acetonitrile (B). Separation was achieved by using: 30%-55% B from 0 to 3 min; 55-100% B from 3 to 6 min; 100% B from 6 to 12 min and returned to initial conditions and equilibrated for 3 minutes. The flow rate was 0.3 mL/min and the injection volume was 5 µL.\nStandard preparation and sample preparation\nStock solution (10 µM ) of each analyte was prepared by dissolving in methanol. They were subject to serial dilution to give calibration curves of SSG 1 (plasma: y = 8.7485× - 0.0676; […]\neach concentration of each analyte was transferred to a centrifuge tube and evaporated to dryness by a concentrator. Dioscin (20 µL , 10 µM) was added as an internal standard followed by methanol (130 µL) and control plasma (50 µL). The mixture was vortexed for 5 s and centrifuged (15000 × g) for 15 min. The supernatant was collected and evaporated to dryness by a concentrator. Methanol (100 µL) was added and then vortexed again for 10 s and centrifuged (15000 × g) for 20 min. The supernatant (5 µL) was subject to LC-MS/MS analysis. Analyte-treated plasma, control brain and analyte-treated brain were prepared in a […]\nThe acquisition and processing of data were performed by Masslynx (version 4.1) software.\nMass window of ±10 mDa and mass resolution of 9000 were set for both molecular ions and product ions. MS full scan was applied to acquire high abundant molecular ions [M+H]+ with […]"}, "[10]": {"test_system": "Aβ42 production in N2A-APPswe cells", "assay": "Aβ42 in conditioned medium of N2A-APPswe cells by ELISA, 18 h treatment", "assay_type": "cell-based", "conditions": "N2a-APPswe, read-out: IC50 in lowering Aβ42 production, N2A-APPswe cells; mean ± standard deviation; n ≥ 3", "text": "Sigma-Aldrich Chemical Co. unless otherwise specified. SSG (1) was purchased from Wako Pure Chemical Industries, Ltd. Diosgenin (6), Dioscin (9), Polyphyllin D (10), Timosaponin BI (22) and Timosaponin BII (23) were purchased from Chengdu Must Bio-Technology Co.\nLtd. Yamogenin (7) was bought from Ambinter c/o Greenpharma while Smilagenin (24) was bought from Steraloids Inc. Substances dissolved in DMSO as stock solutions. Cell culture medium constituents were purchased from Life Technologies, Inc.\nCell culture: Neuro-2A cells expressing Swedish mutants of APP (N2A-APPswe provided by Prof. Yifan Han, The Hong Kong Polytechnic University)1 was cultured in minimal essential medium with 2 mM glutamine, 2 mM pyruvate and 10% fetal bovine serum. […]\nAβ ELISA: Aβ concentrations in conditioned medium were assayed using ELISA kits for […]"}, "[11]": {"test_system": "N2A expressing APPswe", "design": "method as in J. Neurosci., (2005) 25:8807", "conditions": "ref J. Neurosci., (2005) 25:8807, read-out: In vitro IC50 Aβ inhibition; cited from earlier work"}, "[12]": {"conditions": "any metabolite, mice n = 6, three oral doses 100 mg/kg in two days"}}}
{"compound": "COc1cc(/C=C/C(=O)CC(=O)/C=C/c2ccc(O)c(OC)c2)ccc1O", "note": "[Curcumin]", "values": [{"measurement": "Amyloid deposition", "setting": "[1]; chow with 500 ppm for 22 weeks, ref J. Biol. Chem. (2005) 280: 5829, J. Biol. Chem. (2010) 285:28472", "value": "reduced"}, {"measurement": "IC50", "setting": "[2]", "value": "> 20", "unit": "µM"}]}
{"compound": "C/C=C1\\[C@H]2C=C(C)C[C@]1(N)c1ccc(=O)[nH]c1C2", "note": "[Huperzine A]", "values": [{"measurement": "IC50", "setting": "[3]", "value": "~10", "unit": "µM"}]}
{"compound": "Oc1ccc(/C=C/c2cc(O)cc(O)c2)cc1", "note": "[Resveratrol]", "values": [{"measurement": "IC50", "setting": "[4]", "value": "~20", "unit": "µM"}, {"measurement": "Brain Aβ42 reduced by", "setting": "[5]", "value": 20, "unit": "%"}]}
{"compound": "C[C@@H](CC[C@@]1(O)O[C@H]2C[C@H]3[C@@H]4CC[C@@H]5C[C@@H](O[C@@H]6O[C@H](CO)[C@H](O)[C@H](O)[C@H]6O[C@@H]6O[C@H](CO)[C@@H](O)[C@H](O)[C@H]6O)CC[C@]5(C)[C@H]4CC[C@]3(C)[C@H]2[C@@H]1C)CO[C@@H]1O[C@H](CO)[C@@H](O)[C@H](O)[C@H]1O", "note": "[Timosaponin B II (23), timosaponin B II]", "values": [{"measurement": "up-regulation of β-secretase induced by ferric chloride", "setting": "[6]", "value": "inhibit"}]}
{"compound": "CC/C=C\\C/C=C\\C/C=C\\C/C=C\\C/C=C\\C/C=C\\CCC(=O)O", "note": "[docosahexaenoic acid]", "values": [{"measurement": "Total Aβ reduced by", "setting": "[1]; diet with 0.5% level for 5 months, ref J Neurosci. (2005) 25: 3032, J. Biol. Chem (2011) 286:14028", "value": 70, "unit": "%"}, {"measurement": "IC50", "setting": "[7]", "value": "~100", "unit": "µM"}]}
{"compound": "CC1CCC2(OC1)OC1CC3C4CCC5CC(OCC(=O)NCC6OC(O)C(O)C(O)C6O)CCC5(C)C4CCC3(C)C1C2C", "note": "(stereo not drawn) [α-, β-OH SSG (34), α-, β-OH SSG]", "values": [{"measurement": "reduction of Aβ42 levels in the brain", "setting": "[8]", "value": "87% ± 15%"}, {"measurement": "Brain Metabolite", "setting": "[9]; [12]", "value": "Not detected"}, {"measurement": "Plasma Metabolite", "setting": "[9]; [12]", "value": "Not detected"}, {"measurement": "Brain Precursor", "setting": "[9]; mice n = 6, three oral doses 100 mg/kg in two days", "value": "0.025 ± 0.041", "unit": "µM"}, {"measurement": "Plasma Precursor", "setting": "[9]; mice n = 6, three repeated oral doses 100 mg/kg in two days", "value": "0.051 ± 0.072", "unit": "µM"}, {"measurement": "IC50", "setting": "[10]", "value": "7.3 ± 4", "unit": "µM"}]}
{"compound": "Epigallocatechin-3-gallate [Epigallocatechin-3-gallate (EGCG)]", "values": [{"measurement": "IC50", "setting": "[11]", "value": "~20", "unit": "µM"}]}
